Assays:
[1] = tested on: NHLF cells; experiment: ROS production induced by PMA in NHLF cells; assay type: cell-based, human; conditions: FIG. 1
Excerpt: (§1) In order to confirm the effect of the compounds of Synthetic examples on ROS production from fibroblasts and specific substrate cells, ROS production was induced by stimulation of PMA (phorbol 12-myristate 13-acetate), TGF-β1, palmitate or high concentration-glucose, or the like, in HL-60 cells differentiated into neutrophil cells by DMSO treatment, NHLF (normal human lung fibroblast, Lonza), LX-2 (human hepatic stellate cells, Sigma), ARPE19 (human retinal pigment epithelial cell, ATCC), and KEL-FIB (Keloid fibroblast, ATCC) cells, and under this condition, the inhibitory effect of ROS production of the compounds of Synthetic Examples was observed.
(§2) The NHLF (normal human lung fibroblast, Lonza), LX-2 (human hepatic stellate cells, Sigma), ARPE19 (human retinal pigment epithelial cell, ATCC), KEL-FIB (keloid fibroblast, ATCC) cells were suspended in a culture medium containing 10% FBS and aliquoted on a 96 well plate and then cultured under the condition of 5% CO2, 37° C. for 24 hours. After pre-treating the compounds of Synthetic examples at a concentration of 10, 20, 30, 40, 60 and 80 μM for 30 minutes to 1 hour, the ROS stimulus was treated to each well containing the cells and drug. After additional culturing for 48 hours, the ROS production level was confirmed using L-012 or DCF-DA.

[2] = tested on: LX-2 cells; experiment: ROS production induced by PMA in LX-2 cells; assay type: cell-based, human; conditions: FIG. 1
Excerpt: as §1, §2

[3] = tested on: HL-60 cells differentiated into neutrophil cells; experiment: ROS production induced by PMA in HL-60 cells differentiated into neutrophil cells; assay type: cell-based; conditions: Homo sapiens, 0.5 h; differentiated HL-60 cells, compounds 0.5 uM (0.5 mM in the source) for 30 minutes, 200 nM PMA, L-012 luminescence
Excerpt: as §1
HL-60 cells (human leukemia cells, ATCC) were suspended in a medium containing 1.25% DMSO (RPMI+10% FBS) and cultured under the condition of 5% CO2, 37° C. for 6 days, thereby inducing differentiation into neutrophil cells. […] Then, to each well comprising the cells and drug, 200 nM PMA was treated to induce ROS production, and such ROS production was measured by observing the luminescence level of each well using 100 μM L-012.

[4] = tested on: IL-8; experiment: Expression of IL-8 in pancreatic cancer associated fibroblasts (ELISA); assay type: cell-based, human; conditions: P.CAF cells, 48 hours treatment, FIG. 6
Method: (§3) In order to confirm the effect of the compounds of Synthetic examples of the present invention on inflammation reaction in cancer associated fibroblasts, whether the expression of IL6 and IL8 was inhibited by the compounds of Synthetic examples in pancreatic cancer associated fibroblasts (P.CAF) was observed.
(§4) After inoculating 1.5×10^5 cells in a 6 well plate and then culturing in P.CAF complete media for 48 hours, the compounds of Synthetic examples were treated by 10, 20, 30, 40, 60 and 80 μM for 48 hours according to each condition, and then the expression of IL-6 and IL-8 was confirmed by performing ELISA with Quantkine ELISA kit (R&D systems) as follows.
(§5) 100 μl of the culture solution in which the compounds of Synthetic examples were treated for 48 hours was added to the microplate strip for analysis including a 100 μl assay diluent and left at a room temperature for 2 hours and then the contents were removed, and then it was washed with 400 μl wash buffer 4 times. 200 μl of a human IL-6 or IL-8 conjugate was added and left at a room temperature for 2 hours and then the contents were removed, and then it was washed with 400 μl wash buffer 4 times. 200 μl of substrate solution was added and left at a room temperature for 20 minutes and then 50 μl of stop solution was added, and the absorbance at a wavelength of 450 nm was measured within 30 minutes to confirm the expression level of IL-6 and IL-8.

[5] = tested on: IL-1β; experiment: Expression of IL-1β induced by LPS in human-derived fibroblasts (RT-PCR); assay type: cell-based; conditions: LX2, NHLF, ARPE19 and KEL-Fib cells, LPS 1 μg/ml 6 hours, 10 μM compound, FIG. 8
Method: After inoculating 2×10^5 cells in a 6 well plate and then culturing for 24 hours, they were further cultured in a serum-free culture solution for 16 hours and then the Synthetic example 1 Compound was pre-treated for 20 minutes according to each condition and inflammation reaction was induced with LPS (1 μg/ml) for 6 hours. The expression of IL-1β was confirmed using RT-PCR. Total RNA was separated from the cells using RNeasy mini kit (Qiagen), and for the separated RNA 2 ug, cDNA was synthesized using PrimeScript™ II 1st strand cDNA synthesis kit (TaKaRa) and then PCR was performed with AccuPower® PCR PreMix (Bioneer) to amplify genes. The nucleotide sequences for target primers are as follows. IL-1β (forward: 5′-[…]-3′(SEQ ID NO: 1), reverse: 5′-[…]-3′(SEQ ID NO: 2)); GAPDH (forward: 5′-[…]-3′(SEQ ID NO: 3), reverse: 5′-[…]-3′(SEQ ID NO: 4)); β-actin (forward: 5′-[…]-3′(SEQ ID NO: 5), reverse: 5′-[…]-3′(SEQ ID NO: 6)). The PCR product was confirmed by electrophoresis in 1.5% agarose gel.

[6] = tested on: HFF-1 cells; experiment: Collagen gel contraction induced by TGF-β1 in HFF-1 cells; assay type: cell-based, human; conditions: HFF-1 cells in collagen gel, TGF-β1 10 ng/ml, 72 hours, FIG. 7
Excerpt: In order to confirm the effect of the compounds of Synthetic examples on differentiation of fibroblasts into myofibroblasts, the inhibitory effect of the compounds of Synthetic examples on the phenomenon of contraction of gel induced by interaction of human foreskin fibroblasts (HFF-1, ATCC) and collagen was observed.
The mixed solution of the HFF-1 cells and collagen (bovine type I collagen) prepared at a concentration of 3×10^6 cells/ml was aliquoted in a 24 well plate, respectively, and then cultured under the condition of 5% CO2, 37° C. for 1 hour to induce gel polymerization. Then, after suspending the gel attached on the plate from the plate using a spoon, a medium comprising TGF-β1 and Synthetic example compounds was added to each well. After culturing for 72 hours, the Synthetic example compounds were treated by 10, 20, 30, 40, 60 and 80 μM to measure the size of the gel, and thereby, the degree of contraction of the gel by drug treatment was confirmed.

[7] = tested on: αSMA; experiment: Expression of αSMA induced by TGF-β1 (immunocytochemistry); assay type: cell-based, human; conditions: TGF-β1 10 ng/ml, 10 μM compound, FIG. 4
Excerpt: In order to confirm whether the compounds of Synthetic examples of the present invention affect differentiation of fibroblasts into myofibroblasts, the inhibitory effect of the compounds of Synthetic examples on increase in expression of αSMA (biomarker for confirming differentiation into myofibroblasts) induced by TGF-β1 on HFF-1 (human foreskin fibroblast, ATCC), NHLF (normal human lung fibroblast, Lonza), LX-2 (human hepatic stellate cells, Sigma), ARPE19 (human retinal pigment epithelial cell, ATCC), and KEL-FIB (Keloid fibroblast, ATCC) cells was to be observed.
Each cell was suspended in a DMEM medium containing 10% FBS and aliquoted at a concentration of 1×10^4 to 1.5×10^5 cells/well in a 4-well chamber slide (Nunc) and the compounds of Synthetic examples and TGF-β1 (both TGF β1 and TGF-β have the same meaning) were treated to prepare cells to be used for confirming αSMA expression. The confirmation of αSMA expression in the prepared cells was performed by immunocytochemistry as follows. For the cells, fixation with 4% paraformaldehyde for 10 minutes and permeabilization using 0.1% Triton x-100 were performed, and then processes of treating the primary antibody (anti-αSMA Ab, 1:200, at 4° C. for 16 hours) and secondary antibody (Alexa-594 conjugated Ab, 1:800, at a room temperature for 1 hour) against αSMA were progressed in order, and then the expression level of αSMA was observed using a fluorescence microscope.
FIG. 3 observes the effect of treating various compounds of Synthetic examples by 10, 20 and 40 μM, after inducing αSMA expression by treatment of TGF-β1(10 ng/ml) into HFF cells.

[8] = tested on: IL-6; experiment: Expression of IL-6 in pancreatic cancer associated fibroblasts (ELISA); assay type: cell-based, human; conditions: P.CAF cells, 48 hours treatment, FIG. 5
Method: as §3, §4, §5

[9] = tested on: N27 cells; experiment: ROS production induced by alpha-synuclein preformed fibril (PFF) in N27 cells; assay type: cell-based, rat; conditions: 0.001 μM compound, 24 hours, CellROX-Deep Red, FIG. 2
Method: In order to confirm the effect of the compounds of Synthetic examples on ROS production from dopaminergic neural cells, ROS production was induced by alpha-synuclein preformed fibril (PFF) stimulation on N27 (rat dopaminergic neural cell, Sigma) cells and under this condition, the inhibitory effect of ROS production of the compounds of Synthetic examples was observed.
The N27 cells were cultured in RPMI medium containing 10% FBS, 1 μM angiotensin II, and the prepared cells were aliquoted at a concentration of 4×10^3 cells/well on a 6-well plate. The ROS production stimulus, PFF (preformed fibril) and the compounds of Synthetic examples were treated to the cells. After treating the compounds of Synthetic examples for 24 hours, fluorescence of each well was measured using CellROX-Deep Red reagent, thereby confirming the degree of ROS production.

OCCOCCN1CCN(C2CCc3nn(-c4ccccn4)c(O)c3C2)CC1 (stereo not drawn) [Compound 17, 5-{4-[2-(2-hydroxyethoxy)-ethyl]-piperazin-1-yl}-2-pyridin-2-yl-4,5,6,7-tetrahydro-2H-indazol-3-ol]
ROS production induced by PMA [1]: inhibited
ROS production induced by PMA [2]: inhibited
inhibition at 0.5 µM [3]: > 70%

CN(Cc1ccccc1)C1CCc2nn(-c3ccccn3)c(O)c2C1 (stereo not drawn) [Compound 1, 5-(Benzylmethylamino)-2-(pyridin-2-yl)-4,5,6,7-tetrahydro-2H-indazol-3-ol]
ROS production induced by PMA [1]: inhibited
IL-8 expressed in P.CAF [4]: effectively inhibited
IL-1β induced by LPS [5]: effectively inhibited in a concentration-dependent manner
contraction of the gel induced by TGF-β1 [6]: effectively inhibited
ROS production induced by PMA [2]: inhibited
increase in expression of αSMA induced by TGF-β1 ([7]; ARPE19 cells): significantly inhibited
increase in expression of αSMA induced by TGF-β1 ([7]; KEL-FIB cells): significantly inhibited
increase in expression of αSMA induced by TGF-β1 ([7]; LX-2 cells): significantly inhibited
increase in expression of αSMA induced by TGF-β1 ([7]; NHLF cells): significantly inhibited
inhibition at 0.5 µM [3]: > 70%
IL-6 expressed in P.CAF [8]: effectively inhibited

CN1CCN(C2CCc3nn(-c4ccc(C(F)(F)F)cn4)c(O)c3C2)CC1 (stereo not drawn) [Compound 82, 5-(4-Methylpiperazin-1-yl)-2-(5-(trifluoromethyl)pyridin-2-yl)-4,5,6,7-tetrahydro-2H-indazol-3-ol]
ROS production induced by PFF [9]: effectively inhibited
inhibition at 0.5 µM [3]: 50 to 70%

CN1CCN(C2CCc3nn(-c4ccccn4)c(O)c3C2)CC1 (stereo not drawn) [Compound 16, 5-(4-Methylpiperazin-1-yl)-2-(pyridin-2-yl)-4,5,6,7-tetrahydro-2H-indazol-3-ol]
contraction of the gel induced by TGF-β1 [6]: effectively inhibited
ROS production induced by PFF [9]: effectively inhibited
inhibition at 0.5 µM [3]: > 70%

CN(Cc1ccc(S(C)(=O)=O)cc1)C1CCc2nn(-c3ccccn3)c(O)c2C1 (stereo not drawn) [Compound 12, 5-[(4-Methanesulfonylbenzyl)methylamino]-2-(pyridin-2-yl)-4,5,6,7-tetrahydro-2H-indazol-3-ol]
contraction of the gel induced by TGF-β1 [6]: effectively inhibited
ROS production induced by PFF [9]: effectively inhibited
inhibition at 0.5 µM [3]: > 70%

Oc1c2c(nn1-c1ccccn1)CCC(Nc1ccc(F)c(F)c1)C2 (stereo not drawn) [Compound 32, 5-(3,4-Difluorophenylamino)-2-(pyridin-2-yl)-4,5,6,7-tetrahydro-2H-indazol-3-ol]
ROS production induced by PFF [9]: effectively inhibited
inhibition at 0.5 µM [3]: 50 to 70%

From patent US11999718B2, “Pyrazole derivatives” (Aptabio Therapeutics Inc., priority 2021, dated 2024)
